The test system of data set [1] is U937 cells. Description: LPS-induced TNF alpha release in U937 cells. The data set is classed as cell-based. As to the method: (§1) LPS-Induced TNF Alpha/IL-8 Release in U937 Cells: Potency U937 cells, human monocytic cell line, were differentiated to macrophage-type cells by incubation with phorbol myristate acetate (PMA; 100 ng/ml) for 48 to 72 hours. Cells were pre-incubated with final concentrations of compound for 2 hrs. […] Coli: O111:B4, Sigma) for 4 hrs, and the supernatant collected for determination of TNFα and IL-8 concentration by sandwich ELISA (Duo-set, R&D systems). […] The inhibition of IL-8 production was calculated at each concentration of test compound by comparison with vehicle control.

In data set [2] the test system is Differentiated U937 cells. Kind of data set: MTT assay (cell viability). The format is cell-based, human. The procedure:
MTT Assay Differentiated U937 cells were pre-incubated with compound for 4 hrs in 5% FCS or 10% FCS for 24 hrs. […] After 1 hr incubation, the media were removed, 200 ul of DMSO added to each well and the plates were shaken lightly for 1 h prior to reading the absorbance at 550 nm. The percentage loss of cell viability was calculated for each well relative to vehicle (0.5% DMSO)-treatment. Consequently an apparent increase in cell viability for drug treatment relative to vehicle is tabulated as a negative percentage.
A general note: Tetrazolium assays rely on reduction of a dye to a coloured formazan, in cell work by metabolically active cells.

Data set [3] concerns U937 cells. Kind of data set: LPS-induced IL-8 release in U937 cells. The format is cell-based. The conditions noted are these: Homo sapiens, read-out: DU937 (LPS) IL-8 IC50. The procedure: as §1
A further data set deals with THP-1 cells. Description: LPS-induced TNF alpha release in THP-1 cells. The format is cell-based. As to conditions: Homo sapiens. As to the method:
LPS-Induced TNF Alpha Release in THP-1 Cells: Potency […] Coli; O111:B4, Sigma) for 4 hr and the supernatant collected for determination of TNFα concentration by sandwich ELISA (Duo-set, R&D systems). The inhibition of TNFα production was calculated at each concentration by comparison with vehicle control.

The test system of a further data set is BEAS2B cells. Description: Poly I:C-induced ICAM-1 induction in BEAS2B cells. The data set is classed as cell-based. As to conditions: Homo sapiens, BEAS-2B, read-out: BEAS2B (polyIC) ICAM1 IC50. As to the method: Poly I:C-Induced ICAM-1 Induction in BEAS2B Cells: Potency Poly I:C (1 ug/ml) (Invivogen Ltd., San Diego, Calif.) was transfected into BEAS2B cells (human bronchial epithelial cells, ATCC) with Oligofectamine (Invitrogen, Carlsbad, Calif.). Cells were pre-incubated with final concentrations of compound for 2 hrs. The level of ICAM1 expression on the cell surface was determined by cell-based ELISA. Briefly, at 18 hrs after poly I:C transfection, cells were fixed with 4% formaldehyde in PBS. After quenching endogenous peroxidase by adding 0.1% sodium azide and 1% hydrogen peroxide, cells were washed with wash-buffer (0.1% Tween in PBS: PBS-Tween). After blocking the wells with 5% milk in PBS-Tween for 1 hr, the cells were incubated with anti-human ICAM-1 antibody (Cell Signaling Technology, Danvers, Mass.) in 1% BSA PBS overnight at 4° C. Cells were washed with PBS-Tween and incubated with the secondary antibody (HRP-conjugated anti-rabbit IgG, Dako Ltd., Glostrup, Denmark). The ICAM-1 signal was detected by adding substrate and reading at 450 nm with a reference wavelength of 655 nm using a spectrophotometer. […] The measured OD 450-655 readings were corrected for cell number by dividing with the OD595 reading in each well.

The next data set addresses T1, p38 MAPK alpha (MAPK14) (Homo sapiens, UniProt Q16539).
T1 construct: purchased Invitrogen
Kind of data set: Enzyme inhibition assay, p38 MAPK alpha (FRET, Z-LYTE, via MAPKAP-K2). The conditions noted are these: read-out: Enzyme p38α IC50. The format is biochemical.

Setting [4] is: Table 2, loss of cell viability at 1 μg/ml.
The mark [5] stands for this setting: Homo sapiens; read-out: DU937 (LPS) TNFα REC50.
The mark [6] stands for this setting: THP-1, Table 2, read-out: THP-1 (LPS) TNFα IC50.
Where [7] appears, read: Table 3, first MTT column, loss of cell viability, test conducted at 10 μg/ml.
[8] abbreviates: Table 3, second MTT column, loss of cell viability, test conducted at 10 μg/ml.
Setting [9] is: THP-1, Table 3, read-out: THP-1 (LPS) TNFα IC50.
[10] abbreviates: Table 3, first MTT column, loss of cell viability at 1 μg/ml.
The mark [11] stands for this setting: Table 3, second MTT column, loss of cell viability at 1 μg/ml.

The values that follow come from patent US8299074B2, “P38 MAP kinase inhibitors” (RespiVert Ltd., priority 2008, dated 2012).

Where two headings read alike, the source gives them in different places.

T1 sequence (Q16539 whole entry): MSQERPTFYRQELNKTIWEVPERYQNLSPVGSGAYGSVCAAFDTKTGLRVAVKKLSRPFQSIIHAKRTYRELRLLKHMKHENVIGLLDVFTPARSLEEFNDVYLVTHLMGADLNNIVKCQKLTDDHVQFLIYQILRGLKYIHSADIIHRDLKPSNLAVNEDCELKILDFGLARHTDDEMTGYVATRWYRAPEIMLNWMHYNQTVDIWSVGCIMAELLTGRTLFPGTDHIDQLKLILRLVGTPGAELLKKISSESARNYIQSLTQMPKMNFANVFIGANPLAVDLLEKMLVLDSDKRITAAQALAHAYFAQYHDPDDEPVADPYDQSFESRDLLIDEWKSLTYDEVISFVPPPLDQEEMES

By IC50 is commonly meant the concentration that inhibits the measured activity by half. Regarding `Cc1ccc(-n2nc(C(C)(C)C)cc2NC(=O)Nc2ccc(Oc3ccnc(NC(=O)CNC(=O)c4ccncc4)c3)c3ccccc23)cc1` [Example 17, N-(2-(4-(4-(3-(3-tert-Butyl-1-p-tolyl-1H-pyrazol-5-yl)ureido)naphthalen-1-yloxy)pyridin-2-ylamino)-2-oxoethyl)isonicotinamide], the EC50 in the data set on U937 cells [1] (Homo sapiens, read-out: DU937 (LPS) TNFα REC50) was less than 10 nM. Also, the “DU937 (cell viability) MTT assay 4 h” value in data set [2] (setting [4]) is on record as “− (<=30%)”. In addition, the “DU937 (cell viability) MTT assay 24 h” value in data set [2] (setting [4]) is reported as “+ (>30%)”. For the same compound, the IC50 with U937 cells [3] is less than 10 nM; with THP-1 cells (THP-1, read-out: THP-1 (LPS) TNFα IC50) it was less than 10 nM; with BEAS2B cells, less than 10 nM; at p38 MAPK alpha (MAPK14) (Table 2) it was less than 10 nM.

As for `Cc1ccc(-n2nc(C(C)(C)C)cc2NC(=O)Nc2ccc(Oc3ccnc(NC(=O)CNC(=O)CCN4CCOCC4)c3)c3ccccc23)cc1` [Example 19, N-(2-(4-(4-(3-(3-tert-Butyl-1-p-tolyl-1H-pyrazol-5-yl)ureido)naphthalen-1-yloxy)pyridin-2-ylamino)-2-oxoethyl)-3-morpholinopropanamide], the EC50 in the data set on U937 cells [1] (setting [5]) is less than 10 nM. The “DU937 (cell viability) MTT assay 4 h” value in data set [2] (setting [4]) was “− (<=30%)”. For the same compound, the “DU937 (cell viability) MTT assay 24 h” value in data set [2] (setting [4]) is listed as “+ (>30%)”. For the same compound, the concentration for half-maximal inhibition (IC50) in the data set on U937 cells [3] (Table 2), with THP-1 cells (setting [6]), with BEAS2B cells (Table 2) and on p38 MAPK alpha (MAPK14) (Table 2) was less than 10 nM throughout.

For `Cc1ccc(-n2nc(C(C)(C)C)cc2NC(=O)Nc2ccc(Oc3ccnc(NC(=O)CNC(=O)N4CCOCC4)c3)c3ccccc23)cc1` [Example 20, N-(2-(4-(4-(3-(3-tert-Butyl-1-p-tolyl-1H-pyrazol-5-yl)ureido)naphthalen-1-yloxy)pyridin-2-ylamino)-2-oxoethyl)morpholine-4-carboxamide], the EC50 in the data set with U937 cells [1] (setting [5]) is less than 10 nM. Moreover, the “DU937 (cell viability) MTT assay 4 h” value in data set [2] (setting [4]) is on record as “− (<=30%)”. Also, in data set [2] (setting [4]), the “DU937 (cell viability) MTT assay 24 h” value is recorded as “− (<=30%)”. For the same compound, the IC50 in the data set on U937 cells [3] (Table 2) was less than 5000 nM; with THP-1 cells (setting [6]) it was less than 10 nM; with BEAS2B cells (Table 2) it was less than 5000 nM; at p38 MAPK alpha (MAPK14) (Table 2) it was less than 10 nM.

For the compound `COCC(=O)Nc1cc(Oc2ccc(NC(=O)Nc3cc(C(C)(C)C)nn3-c3ccc(C)cc3)cc2)ccn1` [Example 22, N-(4-(4-(3-(3-tert-Butyl-1-p-tolyl-1H-pyrazol-5-yl)ureido)phenoxy)pyridin-2-yl)-2-methoxyacetamide], in the data set on U937 cells [1] (setting [5]), the EC50 was less than 10 nM. Moreover, the “DU937 (cell viability) MTT assay 4 h” value in data set [2] (setting [4]) was “− (<=30%)”. For the same compound, the “DU937 (cell viability) MTT assay 24 h” value in data set [2] (setting [4]) is recorded as “+ (>30%)”. Besides, the IC50 in the data set on U937 cells [3] (Table 2) was less than 10 nM; in the data set on THP-1 cells (setting [6]) it was less than 10 nM; with BEAS2B cells (Table 2) it was less than 5000 nM; on p38 MAPK alpha (MAPK14) (Table 2), less than 5000 nM.

Regarding `COCC(=O)Nc1cc(Oc2ccc(NC(=O)Nc3cc(C(C)(C)C)nn3-c3ccc(C)cc3)cc2C)ccn1` [Example 23, N-(4-(4-(3-(3-tert-Butyl-1-p-tolyl-1H-pyrazol-5-yl)ureido)-2-methylphenoxy)pyridin-2-yl)-2-methoxyacetamide], the EC50 in the data set on U937 cells [1] (setting [5]) was less than 10 nM. Moreover, the “DU937 (cell viability) MTT assay 4 h” value in data set [2] (setting [4]) is recorded as “− (<=30%)”. In addition, the “DU937 (cell viability) MTT assay 24 h” value in data set [2] (setting [4]) was “− (<=30%)”. For the same compound, the IC50 with U937 cells [3] (Table 2) is less than 10 nM; in the data set on THP-1 cells (setting [6]), less than 10 nM; with BEAS2B cells (Table 2), less than 5000 nM; at p38 MAPK alpha (MAPK14) (Table 2), less than 5000 nM.

Take `COCC(=O)Nc1cc(Oc2ccc(NC(=O)Nc3cc(C(C)(C)C)nn3-c3ccc(C)cc3)c(C)c2C)ccn1` [Example 26, N-(4-(4-(3-(3-tert-Butyl-1-p-tolyl-1H-pyrazol-5-yl)ureido)-2,3-dimethylphenoxy)pyridin-2-yl)-2-methoxyacetamide]: the EC50 with U937 cells [1] (setting [5]) is less than 10 nM. For the same compound, the “DU937 (cell viability) MTT assay 4 h” value in data set [2] (setting [4]) is reported as “− (<=30%)”. Besides, the “DU937 (cell viability) MTT assay 24 h” value in data set [2] (setting [4]) is on record as “+ (>30%)”. In addition, the half-inhibitory concentration (IC50) in the data set on U937 cells [3] (Table 2) was less than 10 nM; in the data set with THP-1 cells (setting [6]) it was less than 10 nM; with BEAS2B cells (Table 2), less than 10 nM; on p38 MAPK alpha (MAPK14) (Table 2) it was less than 5000 nM.

On to `CCNC(=O)Nc1cc(Oc2ccc(NC(=O)Nc3cc(C(C)(C)C)nn3-c3ccc(C)cc3)c3ccccc23)ccn1` [Example 28, N-Ethyl-N′-4-(4-(3-(3-tert-butyl-1-p-tolyl-1H-pyrazol-5-yl)ureido)naphthalen-1-yloxy)pyridin-2-ylurea], for which the EC50 with U937 cells [1] (setting [5]) is less than 5000 nM. Also, the “DU937 (cell viability) MTT assay 4 h” value in data set [2] (setting [7]) and in data set [2] (setting [8]) was “−^$ (<=30%)” throughout. Besides, the IC50 in the data set on U937 cells [3] (Table 3) was less than 5000 nM; in the data set on THP-1 cells (setting [9]), less than 10 nM; in the data set with BEAS2B cells (Table 3), less than 5000 nM; on p38 MAPK alpha (MAPK14) (Table 3) it was less than 5000 nM.

Regarding `Cc1ccc(-n2nc(C(C)(C)C)cc2NC(=O)Nc2ccc(Oc3ccnc(NC(N)=O)c3)c3ccccc23)cc1` [Example 29, 4-(4-(3-(3-tert-Butyl-1-p-tolyl-1H-pyrazol-5-yl)ureido)naphthalen-1-yloxy)pyridin-2-yl urea], the EC50 with U937 cells [1] (setting [5]) was less than 10 nM. The “DU937 (cell viability) MTT assay 4 h” value in data set [2] (setting [10]) and in data set [2] (setting [11]) was “− (<=30%)” throughout. Moreover, the IC50 was less than 5000 nM in the data set on U937 cells [3] (Table 3), less than 10 nM in the data set on THP-1 cells (setting [9]), less than 10 nM in the data set with BEAS2B cells (Table 3) and less than 10 nM on p38 MAPK alpha (MAPK14) (Table 3).

`COCCNC(=O)Nc1cc(Oc2ccc(NC(=O)Nc3cc(C(C)(C)C)nn3-c3ccc(C)cc3)c3ccccc23)ccn1` [Example 34, 1-(3-(tert-Butyl)-1-(p-tolyl)-1H-pyrazol-5-yl)-3-(4-((2-(3-(2-methoxyethyl)ureido)pyridin-4-yl)oxy)naphthalen-1-yl)urea]: the EC50 in the data set with U937 cells [1] (setting [5]) was less than 5000 nM. Further, the results for the “DU937 (cell viability) MTT assay 4 h” value in data set [2] (setting [7]) and in data set [2] (setting [8]) were “−^ ^$ (<=30%)” and “+^$ (>30%)”, respectively. In addition, the IC50 in the data set with U937 cells [3] (Table 3) was less than 5000 nM; in the data set with THP-1 cells (setting [9]), less than 10 nM; with BEAS2B cells (Table 3), less than 5000 nM; on p38 MAPK alpha (MAPK14) (Table 3), less than 5000 nM.

For `CNC(=O)Nc1cc(Oc2ccc(NC(=O)Nc3cc(C(C)(C)C)nn3-c3ccc(C)cc3)c3ccccc23)ccn1` [Example 36], the EC50 in the data set with U937 cells [1] (setting [5]) is less than 10 nM. Further, the “DU937 (cell viability) MTT assay 4 h” value in data set [2] (setting [10]) and in data set [2] (setting [11]) was “− (<=30%)” throughout. Besides, the IC50 in the data set on U937 cells [3] (Table 3) was less than 5000 nM; in the data set with THP-1 cells (setting [9]), less than 10 nM; in the data set with BEAS2B cells (Table 3) it was less than 10 nM; at p38 MAPK alpha (MAPK14) (Table 3), less than 5000 nM.

As for `CC(=O)N1CCC(NC(=O)Nc2cc(Oc3ccc(NC(=O)Nc4cc(C(C)(C)C)nn4-c4ccc(C)cc4)c4ccccc34)ccn2)CC1` [Example 39, N-Acetyl 4-(3-(4-(4-(3-(3-tert-butyl-1-p-tolyl-1H-pyrazol-5-yl)ureido)naphthalen-1-yloxy)pyridin-2-yl)ureido)piperidine], the EC50 in the data set with U937 cells [1] (setting [5]) was less than 10 nM. Moreover, the figures for the “DU937 (cell viability) MTT assay 4 h” value in data set [2] (setting [10]) and in data set [2] (setting [11]) were “− (<=30%)” and “+ (>30%)”, respectively. Moreover, the IC50 with U937 cells [3] (Table 3) was less than 10 nM; in the data set on THP-1 cells (setting [9]), less than 10 nM; in the data set with BEAS2B cells (Table 3), less than 5000 nM; at p38 MAPK alpha (MAPK14) (Table 3), less than 10 nM.
